Assay [1] relates to RPMI 8226 (B lymphocyte cell line, multiple myeloma). Kind of assay: 48 hr CTG viability assay, RPMI 8226. Format: cell-based. Particulars: Homo sapiens, RPMI-8226; 48 hr CTG; read-out: RPMI-8226 IC50. The method, boiled down:
(§1)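 Growth inhibition by compound over 48 h; IC50 (nM) derived from duplicate CellTiter-Glo luminescence readings across 0.0015–10 uM.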

In assay [2] the target is T1, β5 subunit of the human constitutive proteasome (CPS) (Homo sapiens, UniProt P28074).
T1 construct: purchased Boston Biochem E-360
Kind of assay: β5 inhibition assay, human constitutive proteasome (Suc-LLVY-AMC). Particulars: IC50 class, Suc-LLVY-AMC substrate. Format: biochemical. On the procedure: The enzymatic activity of the β5 subunit of the human constitutive proteasome (CPS) is analyzed. In another assay, which differs from the assay of the human constitutive proteasome only in using the human immunoproteasome (IPS) the enzymatic activity of the β5 subunit of the human immunoproteasome (IPS) is analyzed. […] Inhibition is indicated as IC50 [nM] (“-”=not measured).

The subject of assay [3] is Hs 746T (human gastric carcinoma cell line). Nature of the assay: 48 hr CTG viability assay, Hs 746T. Format: cell-based. Particulars: Hs746T, 48 hr CTG, read-out: Hs 746T IC50. The method, boiled down: as §1
Assay [4] has as its system A549 (human lung carcinoma cell line). Kind of assay: Glo assay of A549 cells (Table 3; ProteasomeGlo plating scheme). Particulars: Homo sapiens; A549 cells; read-out: PGLo A549. Format: cell-based. The method, boiled down:
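Compound treatment lasts 105 minutes at 37° C. under 5% CO2. Suc-LLVY-Glo substrate premixed with detection reagent (60 min at room temperature) is then added directly to the cells, and luminescence after 10-15 min in the dark gives the IC50 in nM.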

For assay [5], the target named is T2, β5 subunit of the human immunoproteasome (IPS) (Homo sapiens, UniProt P28062).
T2 construct: purchased Boston Biochem E-370
Kind of assay: β5 inhibition assay, human immunoproteasome (Suc-LLVY-AMC). Format: biochemical. Particulars: IC50 class, Suc-LLVY-AMC substrate. In a few lines:
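β5 activity is read as liberated AMC fluorescence (355/460 nm) after 4 h dark reaction at RT with 22.6 μM Suc-LLVY-AMC, stopped by 1 μM bortezomib. Beforehand, 1 nM human IPS and compound sat 10 min at RT in HEPES pH 7.5 buffer containing NaCl, 0.02% SDS and DTT.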

Assay [6] has as its system MM1 S (B lymphoblast cell line). Nature of the assay: 48 hr CTG viability assay, MM1S. The conditions noted are these: Homo sapiens, 48 hr CTG, read-out: MM1S IC50. The format is cell-based. In a few lines:
as §1

The structures appear in SMILES notation. Where only a bound is given, the exact number is not on record here.

On to `Cc1ccc2cc1CNC(=O)[C@H](CCc1ccccc1)NC(=O)[C@@H](NC(=O)CCN1CCC3(CCOC3)CC1)CC(=O)N1CCCC(CCO2)C1` (stereo partly drawn) [Compound 621, N-((9S,12S)-5^4-methyl-8,11,14-trioxo-9-phenethyl-4-oxa-7,10-diaza-1(3,1)-piperidina-5(1,3)-benzenacyclotetradecaphane-12-yl)-3-(2-oxa-8-azaspiro[4.5]decan-8-yl)propanamide], for which the IC50 in assay [1], in assay [2], in assay [3], in assay [4], in assay [5] and in assay [6] was below 100 nM each time.

In the case of `Cc1ccc2cc1CNC(=O)[C@H](CCc1ccccc1)NC(=O)[C@@H](NC(=O)CCNCc1ccc(OCC3CCCCC3)cc1)CC(=O)N1CCCC(CCO2)C1` (stereo partly drawn) [Compound 706, 3-((4-(cyclohexylmethoxy)benzyl)amino)-N-((9S,12S)-5^4-methyl-8,11,14-trioxo-9-phenethyl-4-oxa-7,10-diaza-1(3,1)-piperidina-5(1,3)-benzenacyclotetradecaphane-12-yl)propanamide], the IC50 in assay [1], in assay [2], in assay [3], in assay [4], in assay [5] and in assay [6] was below 100 nM each time.

With `COc1ccc(CCCOCCC(=O)N[C@H]2CC(=O)N3CCCC(CCOc4ccc(C)c(c4)CNC(=O)[C@H](CCc4ccccc4)NC2=O)C3)cc1` (stereo partly drawn) [Compound 606, 3-(3-(4-methoxyphenyl)propoxy)-N-((9S,12S)-5^4-methyl-8,11,14-trioxo-9-phenethyl-4-oxa-7,10-diaza-1(3,1)-piperidina-5(1,3)-benzenacyclotetradecaphane-12-yl)propanamide], the IC50 in assay [1], in assay [2], in assay [3], in assay [4], in assay [5] and in assay [6] was below 100 nM throughout.

With `Cc1ccc2cc1CNC(=O)[C@H](CCc1ccccc1)NC(=O)[C@@H](NCC(F)(F)F)CC(=O)N1CCCC(CCO2)C1` (stereo partly drawn) [Compound 709, (9S,12S)-5^4-methyl-9-phenethyl-12-((2,2,2-trifluoroethyl)amino)-4-oxa-7,10-diaza-1(3,1)-piperidina-5(1,3)-benzenacyclotetradecaphane-8,11,14-trione], the IC50 in assay [1] is below 100 nM; in assay [2], below 100 nM; in assay [3] it was 100 to 500 nM; in assay [4], below 100 nM; in assay [5], below 100 nM; in assay [6], below 100 nM.

Turning to `Cc1ccc2cc1CNC(=O)[C@H](CCc1ccccc1)NC(=O)[C@@H](N1CCCC1)CC(=O)N1CCCC(CCO2)C1` (stereo partly drawn) [Compound 731, (9S,12S)-5^4-methyl-9-phenethyl-12-(pyrrolidin-1-yl)-4-oxa-7,10-diaza-1(3,1)-piperidina-5(1,3)-benzenacyclotetradecaphane-8,11,14-trione], the IC50 in assay [1] is 500 to 1000 nM; in assay [2], 100 to 500 nM; in assay [3], 1000 to 5000 nM; in assay [4], 1000 to 5000 nM; in assay [5], below 100 nM; in assay [6], 100 to 500 nM.

Take `Cc1ccc2cc1CNC(=O)[C@H](CCc1ccccc1)NC(=O)[C@@H](NC(=O)CCN1CC3(COC3)C1)CC(=O)N1CCCC(CCO2)C1` (stereo partly drawn) [Compound 660, N-((9S,12S)-5^4-methyl-8,11,14-trioxo-9-phenethyl-4-oxa-7,10-diaza-1(3,1)-piperidina-5(1,3)-benzenacyclotetradecaphane-12-yl)-3-(2-oxa-6-azaspiro[3.3]heptan-6-yl)propanamide]: the IC50 in assay [1], in assay [2], in assay [3], in assay [4], in assay [5] and in assay [6] was below 100 nM throughout.

These data come from US20240415819A1, “MACROCYCLIC COMPOUNDS AS PROTEASOME SUBUNIT BETA TYPE-5 INHIBITORS” (Lead Discovery Center GmbH, priority 2021, published 2024).
